From BindingDB's records for patent US20240083908 (Modulus Discovery, 2024)

What follows are molecules tested against Poly(ADP-ribose) glycohydrolase (Homo sapiens, UniProt Q86W56) (assay: PARG Activity Assay).
Poly(ADP-ribose) glycohydrolase, sequence (Q86W56 whole entry): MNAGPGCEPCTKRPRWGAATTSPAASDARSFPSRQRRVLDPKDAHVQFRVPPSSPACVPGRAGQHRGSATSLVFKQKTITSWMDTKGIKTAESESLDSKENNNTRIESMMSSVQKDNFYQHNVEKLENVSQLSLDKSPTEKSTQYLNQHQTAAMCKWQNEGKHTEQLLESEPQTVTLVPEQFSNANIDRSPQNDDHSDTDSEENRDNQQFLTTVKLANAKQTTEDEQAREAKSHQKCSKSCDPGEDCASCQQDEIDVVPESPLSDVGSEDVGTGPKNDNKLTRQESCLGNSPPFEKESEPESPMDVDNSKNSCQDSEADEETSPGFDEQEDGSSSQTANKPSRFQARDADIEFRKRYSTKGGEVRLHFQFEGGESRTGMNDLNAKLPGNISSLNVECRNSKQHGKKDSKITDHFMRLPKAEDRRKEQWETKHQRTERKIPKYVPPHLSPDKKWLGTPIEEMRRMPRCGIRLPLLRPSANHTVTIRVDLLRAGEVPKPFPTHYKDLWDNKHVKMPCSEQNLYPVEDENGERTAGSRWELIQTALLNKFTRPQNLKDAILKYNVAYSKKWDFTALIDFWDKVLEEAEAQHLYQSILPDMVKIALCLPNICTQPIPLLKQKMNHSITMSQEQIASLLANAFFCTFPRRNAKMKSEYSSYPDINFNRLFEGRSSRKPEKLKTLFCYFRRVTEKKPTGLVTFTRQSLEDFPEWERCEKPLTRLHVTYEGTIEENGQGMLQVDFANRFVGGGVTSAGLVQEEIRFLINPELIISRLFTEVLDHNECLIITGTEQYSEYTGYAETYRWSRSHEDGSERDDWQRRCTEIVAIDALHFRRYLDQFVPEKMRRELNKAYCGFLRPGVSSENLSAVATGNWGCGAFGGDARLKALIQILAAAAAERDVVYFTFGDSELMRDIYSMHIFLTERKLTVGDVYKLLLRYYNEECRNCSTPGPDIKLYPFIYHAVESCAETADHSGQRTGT
Procedure: PARG Activity Assay was performed in Streptavidin-coated 96-well plates. […] The substrate solution was added to the 96-well plate at the volume of 200 micro liter per well and incubated for 3 hours at room temperature. After the incubation, the substrate solution was discarded and assay plate was washed 4 times with 220 micro liter of PBS containing 0.1% Tween20 (PBST). […] The diluted enzyme solution was pre-incubated with compounds for 1 hour at room temperature in a 96-well plate and transferred 100 micro liter per well to the poly (ADP-ribose) substrate-coated assay plate. The plate was incubated for 1 hour at 25° C. and then washed 4 times with 220 micro liters of PBST. For the detection of non-digested poly (ADP-ribose) polymer on the plate, mouse anti-poly (ADP-ribose) antibody diluted with 0.2% BSA containing PBS was added 100 micro liters per well and incubated 1 hour at room temperature. Plate was washed 4 times with TBST and 100 micro liter of HRP-labeled anti-mouse Ig antibody was added to the wells. Plate was incubated for 30 minutes at room temperature and then washed 4 times with PBST. For the detection 100 micro liters of TMB substrate solution was added to the wells. After sufficient color development, reaction was stopped by addition of 50 micro liter of 0.2 M […].
With `Cn1cc(Cn2c(=O)c3cc(S(=O)(=O)NC4(C)CC4)sc3n(-c3ccc(F)cc3)c2=O)cn1` [US20240083908, Example 136] the IC50 was 860 nM. `CN1CCC(Cn2c(=O)n(Cc3cnn(C)c3)c(=O)c3cc(S(=O)(=O)NC4(C)CC4)sc32)CC1` [US20240083908, Example 98] gave an IC50 of 5940 nM. `Cn1cc(Cn2c(=O)c3cc(S(=O)(=O)NC4(C)CC4)sc3n(Cc3ccc4cncn4c3)c2=O)cn1` [US20240083908, Example 40] was tested, and the IC50 was 4.1 nM. For `COc1cc(Cn2c(=O)n(Cc3cnn(C)c3)c(=O)c3cc(S(=O)(=O)NC4(C)CC4)sc32)ccc1F` [US20240083908, Example 121], the IC50 was 20 nM. `Cn1cc(Cn2c(=O)c3cc(S(=O)(=O)NC4(C)CC4)sc3n(Cc3ccc4c(c3)CC(=O)N4)c2=O)cn1` [US20240083908, Example 130] was tested, and the IC50 was 3 nM. `Cn1cc(Cn2c(=O)c3cc(S(=O)(=O)NC4(C)CC4)sc3n(CC3CCN(CCO)CC3)c2=O)cn1` [US20240083908, Example 99] gave an IC50 of 500 nM. For `CC(=O)N1CCC(n2c(=O)n(Cc3cnn(C)c3)c(=O)c3cc(S(=O)(=O)NC4(C)CC4)sc32)CC1` [US20240083908, Example 92], the IC50 was 230 nM. `Cn1cc(Cn2c(=O)c3cc(S(=O)(=O)NC4(C)CC4)sc3n(Cc3cnn(CCO)c3)c2=O)cn1` [US20240083908, Example 57] showed an IC50 of 20 nM. Molecule `Cn1cc(Cn2c(=O)c3cc(S(=O)(=O)NC4(C)CC4)sc3n(Cc3cc4c(cc3F)COC4)c2=O)cn1` [US20240083908, Example 110] has an IC50 of 17 nM. With `Cc1nc(C)c(Cn2c(=O)n(Cc3cnn(C)c3)c(=O)c3cc(S(=O)(=O)NC4(C)CC4)sc32)s1` [US20240083908, Example 25] the IC50 was 13 nM. `Cc1ncc(Cn2c(=O)c3cc(S(=O)(=O)NC4(C)CC4)sc3n(CCCN(C)C)c2=O)s1` [US20240083908, Example 8] showed an IC50 of 630 nM. Molecule `Cc1nc(C)c(Cn2c(=O)n(Cc3ccc(Cl)nc3)c(=O)c3cc(S(=O)(=O)NC4(C)CC4)sc32)s1` [US20240083908, Example 105] has an IC50 of 50 nM. `CN(C)CCN(C)c1ccc(Cn2c(=O)n(Cc3cnn(C)c3)c(=O)c3cc(S(=O)(=O)NC4(C)CC4)sc32)cc1F` [US20240083908, Example 78] was tested, and the IC50 was 111 nM. Molecule `Cc1ncc(Cn2c(=O)c3cc(S(=O)(=O)NC4(C)CC4)sc3n(Cc3cc(C(C)C)nn3C)c2=O)s1` [US20240083908, Example 107] has an IC50 of 70 nM. With `CNCCC(=O)N1CCC(n2c(=O)n(Cc3cnn(C)c3)c(=O)c3cc(S(=O)(=O)NC4(C)CC4)sc32)CC1` [US20240083908, Example 95] the IC50 was 320 nM. In the case of `COc1cc2c(cc1Cn1c(=O)n(Cc3cnn(C)c3)c(=O)c3cc(S(=O)(=O)NC4(C)CC4)sc31)COC2` [US20240083908, Example 111], the IC50 is reported as 120 nM. In the case of `Cn1cc(Cn2c(=O)c3cc(S(=O)(=O)NC4(C)CC4)sc3n(Cc3cnc4c(c3)COC4)c2=O)cn1` [US20240083908, Example 108], the IC50 is reported as 4 nM. `Cc1nc(C)c(Cn2c(=O)n(Cc3cnn(CCO)c3)c(=O)c3cc(S(=O)(=O)NC4(C)CC4)sc32)s1` [US20240083908, Example 104b] was tested, and the IC50 was 120 nM. For `Cn1cc(Cn2c(=O)c3cc(S(=O)(=O)NC4(C#N)CC4)sc3n(Cc3ccc4c(c3)COC4)c2=O)cn1` [US20240083908, Example 100], the IC50 was 42 nM. `Cn1cc(Cn2c(=O)c3cc(S(=O)(=O)NC4(C)CC4)sc3n(Cc3ccc4cn[nH]c4c3)c2=O)cn1` [US20240083908, Example 36] gave an IC50 of 5.3 nM. `CC1(NS(=O)(=O)c2cc3c(=O)n(Cc4nc5c(s4)CCCC5)c(=O)n(Cc4ccc5c(c4)COC5)c3s2)CC1` [US20240083908, Example 106] gave an IC50 of 990 nM. `Cn1cc(Cn2c(=O)c3cc(S(=O)(=O)NC4(C)CC4)sc3n(Cc3ccc4c(c3)COC4)c2=O)cn1` [US20240083908, Example 28] gave an IC50 of 10 nM. In the case of `CNCCN(C)c1ccc(Cn2c(=O)n(Cc3cnn(C)c3)c(=O)c3cc(S(=O)(=O)NC4(C)CC4)sc32)cc1F` [US20240083908, Example 77], the IC50 is reported as 70 nM. For `COc1ccc(Cn2c(=O)n(Cc3cnn(C)c3)c(=O)c3cc(S(=O)(=O)NC4(C)CC4)sc32)cc1` [US20240083908, Example 50], the IC50 was 40 nM. Molecule `Cn1cc(Cn2c(=O)c3cc(S(=O)(=O)NC4(C)CC4)sc3n(Cc3ccc4oc(CO)cc4c3)c2=O)cn1` [US20240083908, Example 64] has an IC50 of 15 nM. For `Cn1cc(Cn2c(=O)c3cc(S(=O)(=O)NC4(C)CC4)sc3n(Cc3ccc(OC4CC4)cc3)c2=O)cn1` [US20240083908, Example 68], the IC50 was 63 nM. For `Cn1cc(Cn2c(=O)c3cc(S(=O)(=O)NC4(C)CC4)sc3n(C3CCNCC3)c2=O)cn1` [US20240083908, Example 91], the IC50 was 270 nM. For `COCc1cc2cc(Cn3c(=O)n(Cc4cnn(C)c4)c(=O)c4cc(S(=O)(=O)NC5(C)CC5)sc43)ccc2o1` [US20240083908, Example 63], the IC50 was 20 nM. `Cc1ncc(Cn2c(=O)[nH]c3sc(S(=O)(=O)NC4(C)CC4)cc3c2=O)s1` [US20240083908, Example 1] gave an IC50 of 22900 nM.
